Source: PubChem BioAssay AID2060486 (Molecular Pharmacology Branch, DTP, NCI, 2025)
Where “and” joins values, the source holds several entries; their conditions need not be identical. Equal values may be shown once.

Test system: IGROV1 complex spheroids (HUVEC, MSC), viability % test/control
Assay: Anticancer human tumor IGROV1 cell line growth inhibition [GQUAD];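 further: spheroids exposed to compounds for 7 days before readout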
Conditions: for viability, T/C: stronger effect = lower value
Source text: DNA G-quadruplex Stabilizer Agents in Combinations in Complex Spheroids
A high-throughput screen of multi-cell type tumor spheroids was designed to identify active combinations of DNA G-quadruplex stabilizer agents and targeted small molecules. Complex spheroids include a stromal component modeled by human endothelial cells (HUVEC) and fibroblasts modeled by human mesenchymal stem cells (MSCs). The concentration ranges selected for each drug and investigational agent were based upon clinically achievable concentrations if the clinical Cmax of the agent was known.
Compounds. The drugs and investigational agents: pidnarulex (CX-5461; NSC782164), APTO-253 (NSC789042), BRACO-19 (NSC847499), peposertib (NSC802822), ceralasertib (NSC780249), elimusertib (NSC800525), camonsertib (NSC841442), AZD-1390 (NSC803789), olaparib (NSC753686), talazoparib (NSC767125), ART-558 (NSC835418), sotorasib (NSC818433), MRTX-1133 (NSC836407), SN-38 (NSC673596), topotecan (NSC609699), etoposide (NSC141540), doxorubicin (NSC123127), gemcitabine (NSC613327), 5-fluorouracil (NSC19893), paclitaxel (NSC125973), vemurafenib (NSC761431), panobinostat (NSC761190), R-306465 (JNJ-16241199; NSC773264), adavosertib (NSC754352), TP-3654 (NSC805149), carboplatin (NSC241240), KSQ-4279 (NSC840948), and staurosporine (NSC755774) were obtained from the National Cancer Institute (NCI) Developmental Therapeutics Program Chemical Repository (34). The FDA-approved anticancer drug set is available from the NCI Developmental Therapeutics Program. […] The stock solutions were prepared in dimethyl sulfoxide (DMSO, Sigma-Aldrich, St. Louis, MO, cat. D2650) at 800-fold the tested concentration and stored at -70 degrees C prior to their use. All drugs and investigational agents were tested over a range starting from a high concentration at or near the clinical Cmax and decreasing in half-log increments. If the clinical Cmax for an agent had not been determined, the highest concentration tested was 10 microM.
2.3 Cell Culture. All cells were maintained in an incubator at 37 degrees C and 5% CO2 with 95% humidity. The PDC lines were cultured according to standard operating procedures established by the NCI PDMR. All PDCs were thawed and cultured in Matrigel-coated flasks prepared with a working solution of 1X Ham's F-12 nutrient mix, without supplementation (Invitrogen, cat. 11765054), 100 U/mL penicillin-streptomycin (Invitrogen, cat. 15140122), and 2.5% Matrigel (Corning Inc., cat. 354248) for the first three passages. The 857933-349-R-J2-PDC line was cultured in 6C/Colon 1B media, which includes advanced DMEM/F-12 (Thermo Fisher Scientific, cat. 12634028), 10 mM HEPES (Thermo Fisher Scientific, cat. 15630080), 1X GlutaMAX supplement (Thermo Fisher Scientific, cat. 35050061), 0.1 mg/mL primocin (InvivoGen, cat. ant-pm-2), 10% defined fetal bovine serum, heat inactivated (HyClone Laboratories Inc., cat. SH30070.03HI), 50% L-WRN conditioned media (ATCC, cat. CRL-3276), 1.25 mM N-Acetyl-L-cysteine (Sigma-Aldrich, cat. A9165), 10 mM nicotinamide (Sigma-Aldrich, cat. N0636), 1X B-27 supplement (Thermo Fisher Scientific, cat. 17504044), 1X N-2 supplement (Thermo Fisher Scientific, cat. 17502048), 10 microM Y-27632 dihydrochloride (Tocris Bioscience, cat. 1254), and 50 ng/mL human EGF recombinant protein (Thermo Fisher Scientific, cat. PHG0311). The 485176-168-R4-J1-PDC line was cultured in Panc media, which includes all 6C/Colon 1B media components plus 100 ng/mL human FGF-10 (Thermo Fisher Scientific, cat. 100-26), 500 nM SB-431542 (Selleckchem, cat. S1067), and gastrin (Tocris, cat. 3006).
[…]

Row | Structure (SMILES) | viability, T/C (compound 0.0316 µM) | viability, T/C (compound 0.1 µM) | viability, T/C (compound 0.316 µM) | viability, T/C (compound 1 µM) | viability, T/C (compound 3.16 µM) | viability, T/C (compound 10 µM) | IC50 (curve of compound) | IC50 (compound alone, run of 03/18/2024) | IC50 (compound alone, run of 03/26/2024) | viability, T/C (compound 0.000999 µM) | viability, T/C (compound 0.00316 µM) | viability, T/C (compound 0.00999 µM) | viability, T/C (compound 0.0999 µM)
1 | COc1cc(C2c3cc4c(cc3C(OC3OC5COC(C)OC5C(O)C3O)C3COC(=O)C23)OCO4)cc(OC)c1O (stereo not drawn) | 87.7% and 74.7% and 87.1% | 50.5% and 54.1% and 56.5% | 23.5% and 21.2% and 26.5% | 14% and 12.6% and 12.7% | 10.9% and 11.7% and 9.02% | 5.01% and 6.17% and 5.68% | 99.8 nM and 115 nM and 128 nM |  |  |  |  |  | 
2 | COc1ccc([C@@H](O)c2cc(-c3ncnc4cc(N5CCOCC5)ccc34)c(F)cc2Cl)nn1 | 98.6% and 95.7% and 99.4% | 88.4% and 81.6% and 65.6% | 91.1% and 92.8% and 94.7% | 50.6% and 64.3% and 60.5% | 20.1% and 18% and 17.6% | 6.24% and 5.2% and 5.02% | 1100 nM and 1440 nM and 1360 nM |  |  |  |  |  | 
3 | COc1cccc2c1C(=O)c1c(O)c3c(c(O)c1C2=O)CC(O)(C(=O)CO)CC3OC1CC(N)C(O)C(C)O1 (stereo not drawn) | 67.5% and 64.3% and 55.3% | 16.6% and 19.5% and 22.7% | 8.67% and 8.83% and 8.72% | 3.86% and 4.47% and 4.45% | 0.12% and 0.15% and 0.11% | 0.59% and 1.33% and 0.9% | 47.2 nM and 45.8 nM and 37.9 nM |  |  |  |  |  | 
4 | COc1ncnc(C2CC2)c1-c1ncc2cnn(Cc3ccc(-c4nc(C(F)(F)F)cn4C(C)C)cc3)c2n1 | 99.3% and 85% and 100% | 82.7% and 93.3% and 87% | 94.9% and 98.1% and 93% | 90.1% and 91.9% and 96.5% | 78.2% and 69.5% and 96.9% | 94.5% and 82.1% and 77.6% | > 10000 nM |  |  |  |  |  | 
5 | Cc1[nH]c2ccc(F)cc2c1-c1nc2c3cccnc3c3ncccc3c2[nH]1 |  | 101% [middle of 12 runs] |  | 4.97% [middle of 12 runs] | 4.72% [middle of 12 runs] | 4.29% [middle of 12 runs] |  | 561 nM [middle of 8 runs] | 531 nM [middle of 4 runs] |  |  |  | 
6 | Cc1[nH]c2ccccc2c1CCNCc1ccc(/C=C/C(=O)NO)cc1 | 34.2% and 33.4% and 38.3% |  | 0.26% (2×) and 0.27% |  |  |  | 21.7 nM and 20.5 nM and 23.2 nM |  |  | 108% and 102% and 86.4% | 89.8% and 85.8% and 90.5% | 83.8% and 79.4% and 81.5% | 4.41% and 3.52% and 3.65%
7 | Cc1cccc(N(C)C(=O)C2C(O)CCN2c2nc(C)cc(C(F)(F)F)c2C#N)c1 (stereo not drawn) | 85.7% and 108% and 109% | 86.3% and 92.3% and 87.3% | 100% (2×) and 103% | 87.2% and 85.6% and 91% | 89.7% and 99.7% and 89% | 88.3% and 93.8% and 78% | > 10000 nM |  |  |  |  |  | 
